Results on 27 molecules are retold here after patent publication US5519024A, “Quinolonecarboxylic acid derivatives and their use” (Takeda Chemical Industries, Ltd., priority 1993, dated 1996).

Counter-ions that a name gives are not always drawn. Like-named read-outs stand apart in the source and are kept apart here.

The target in this assay is T1, GPIIb/IIIa (Homo sapiens, UniProt P05106+P08514).
T1 construct: Purification of GPIIb/IIIa from HEL cells; endogenous in cells; host or cells: HEL cells (HEL 92.1.7, ATCC TIB180); endogenous complex solubilized with Triton X-100 and purified in house
In words: Inhibitory activity against binding of GPIIb/IIIa and fibrinogen. Particulars: read-out: GPIIb/IIIa Fibrinogen Binding Inhibitory Activity. As to the method:
Test Example 1: Inhibitory activity against binding of GPIIb/IIIa and fibrinogen
(1) Cultivation of human erythroleukemia-derived cell line (hereinafter referred to as HEL cells)
HEL cells (HEl92.1.7; ATCC No. TIB180) were purchased from ATCC (Rockville, Md., U.S.A.). The medium was RPMI medium (GIBCO Laboratories, Grand Island, N..Y, U.S.A.) containing 40 mM N-2-hydroxyethylpiperazine-N'-2-ethanesulfonic acid (hereinafter referred to as HEPES) (pH 7.0), 0.2% NaHCO3, 100 μg/ml kanamycin and 10% FCS. The cells were cultured in the presence of 5% CO2 at 37° C., with the medium replaced with a fresh medium to obtain a 4- to 5-fold dilution at intervals of 3 to 4 days.
(2) Purification of GPIIb/IIIa from HEL cells
GPIIb/IIIa was purified by a modification of the method of L. A. Fitzgerald et al. [J. Biol. Chem., 262, 3936 (1987)] as follows: All purification was conducted at room temperature, unless otherwise stated. At 7 days of cultivation, cells were collected from the HEL cell culture broth (cell suspension) by centrifugation (1,000 ×g, 10 minutes, 4° C.). After washing with 20 mM Tris-HCl (pH 7.5) containing 1 mM EDTA and 150 mM NaCl, the cells were suspended in a solubilizing buffer (20 mM Tris-HCl, 150 mM NaCl, 1% Triton X-100, 1 mM MgCl2, 1 mM CaCl2, 0.1 mM (p-amidinophenyl)methanesulfonyl fluoride (hereinafter referred to as APMSF), 10 nM leupeptin, 0.02% NaN3, pH 7.4), followed by gentle stirring at 4° C. for 30 minutes, to solubilize the GPIIb/IIIa. The suspension was centrifuged (100,000 ×g, 1 hour) at 4° C., and the cell debris removed, to yield a cell extract. The cell extract was passed through a Heparin-Sepharose CL-6B column (Pharmacia LKB) and a DEAE-Toyopearl 650M column (Tosoh), both previously equilibrated with a column buffer (20 mM Tris-HCl, 150 mM NaCl, 0.1% Triton X-100, 1 mM MgCl2, 1 mM CaCl2, 0.1 mM APMSF, 1 nM leupeptin, 0.05% NaN3, pH 7.4). The effluent was applied to a ConA-Sepharose column (Pharmacia LKB), previously equilibrated with the same column buffer as above, to adsorb the GPIIb/IIIa, followed by elution with the same column buffer but containing 0.5M methyl α-D-mannopyranoside. The eluted fraction was concentrated at 4° C. using an ultrafiltration apparatus (Amicon Corporation the fraction's molecular weight of 10,000), after which it was subjected to gel filtration through a Sephacryl S-300 column (Pharmacia LKB), previously equilibrated with the same column buffer, to yield a purified standard sample.
(3) Biotinization of human fibrinogen
Conducted by the method of I. F. Charo [I. F. Charo et al., J. Biol. Chem., 266, 1415 (1991)].
Human fibrinogen (Kabi Vitrum AB) was dissolved in PBS to 5 mg/ml and then dialyzed at 4° C. against 0.1M carbonate buffer (pH 8.2) containing 0.1M NaCl. After dialysis, insoluble substances were removed by centrifugation (100,000 ×g, 30 minutes), and the dialyzate was diluted to 1 mg/ml with the same buffer. To this dilution, sulfo-N-hydroxysuccinimidebiotin (Pierce Chemical Co.) was added to a final concentration of 0.2 mg/ml, followed by gentle mixing at room temperature for 30 minutes, to biotinize the fibrinogen. After completion of the reaction, the mixture was dialyzed against 0.05M Tris-HCl buffer (pH 7.4) containing 0.1M NaCl and 0.05% NaN3.
(4) Determination of inhibitory activity against fibrinogen binding
Conducted by a modification of the method of I. F. Charo [I. F. Charo et al., J. Biol. Chem., 266, 1415 (1991)] as follows: The purified GPIIb/IIIa was diluted to 1 μg/ml with buffer A (20 mM Tris-HCl, 150 mM NaCl, 1 mM CaCl2, 0.02% NaN3, pH 7.4). A 100 μl aliquot of this dilution was dispensed to a 96-well microplate (Maxisorp, produced by Nunc), and the plate kept standing at 4° C., to adsorb the GPIIb/IIIa to the microplate. Next, 150 μl of buffer B (35 mg/ml BSA, 50 mM Tris-HCl, 100 mM NaCl, 2 mM CaCl2, 0.02% NaN3, pH 7.4) was added, followed by 2 hours of blocking at 30° C. […]

T1 sequence (P08514 32-887 limits assumed): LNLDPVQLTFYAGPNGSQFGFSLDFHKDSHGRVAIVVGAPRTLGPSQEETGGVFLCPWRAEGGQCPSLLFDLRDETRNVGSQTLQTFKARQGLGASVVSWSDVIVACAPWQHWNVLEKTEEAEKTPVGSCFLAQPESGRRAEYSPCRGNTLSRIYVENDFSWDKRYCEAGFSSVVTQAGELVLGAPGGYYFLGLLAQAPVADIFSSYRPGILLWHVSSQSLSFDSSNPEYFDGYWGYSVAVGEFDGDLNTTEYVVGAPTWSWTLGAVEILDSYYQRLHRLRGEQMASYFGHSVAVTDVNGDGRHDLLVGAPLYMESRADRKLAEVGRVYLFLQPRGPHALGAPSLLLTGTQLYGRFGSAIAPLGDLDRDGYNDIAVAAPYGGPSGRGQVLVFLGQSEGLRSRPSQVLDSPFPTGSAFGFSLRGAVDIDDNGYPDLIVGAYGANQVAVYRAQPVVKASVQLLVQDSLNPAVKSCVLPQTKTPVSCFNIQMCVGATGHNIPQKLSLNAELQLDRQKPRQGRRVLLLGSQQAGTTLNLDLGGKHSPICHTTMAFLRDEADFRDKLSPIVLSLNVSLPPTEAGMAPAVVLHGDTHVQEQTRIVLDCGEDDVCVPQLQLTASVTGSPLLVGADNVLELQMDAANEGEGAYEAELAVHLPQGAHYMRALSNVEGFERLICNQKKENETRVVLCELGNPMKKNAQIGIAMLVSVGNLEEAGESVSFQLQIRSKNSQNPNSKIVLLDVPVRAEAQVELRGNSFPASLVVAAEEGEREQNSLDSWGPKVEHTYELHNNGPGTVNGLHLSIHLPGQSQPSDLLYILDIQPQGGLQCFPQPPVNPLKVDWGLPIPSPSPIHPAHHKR
T1 sequence (P08514 891-1039 limits assumed): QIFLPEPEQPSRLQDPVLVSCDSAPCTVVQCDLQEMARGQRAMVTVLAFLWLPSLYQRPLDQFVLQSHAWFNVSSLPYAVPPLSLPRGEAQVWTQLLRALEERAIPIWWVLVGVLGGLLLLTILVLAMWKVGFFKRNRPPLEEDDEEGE
T1 sequence (P05106 27-788): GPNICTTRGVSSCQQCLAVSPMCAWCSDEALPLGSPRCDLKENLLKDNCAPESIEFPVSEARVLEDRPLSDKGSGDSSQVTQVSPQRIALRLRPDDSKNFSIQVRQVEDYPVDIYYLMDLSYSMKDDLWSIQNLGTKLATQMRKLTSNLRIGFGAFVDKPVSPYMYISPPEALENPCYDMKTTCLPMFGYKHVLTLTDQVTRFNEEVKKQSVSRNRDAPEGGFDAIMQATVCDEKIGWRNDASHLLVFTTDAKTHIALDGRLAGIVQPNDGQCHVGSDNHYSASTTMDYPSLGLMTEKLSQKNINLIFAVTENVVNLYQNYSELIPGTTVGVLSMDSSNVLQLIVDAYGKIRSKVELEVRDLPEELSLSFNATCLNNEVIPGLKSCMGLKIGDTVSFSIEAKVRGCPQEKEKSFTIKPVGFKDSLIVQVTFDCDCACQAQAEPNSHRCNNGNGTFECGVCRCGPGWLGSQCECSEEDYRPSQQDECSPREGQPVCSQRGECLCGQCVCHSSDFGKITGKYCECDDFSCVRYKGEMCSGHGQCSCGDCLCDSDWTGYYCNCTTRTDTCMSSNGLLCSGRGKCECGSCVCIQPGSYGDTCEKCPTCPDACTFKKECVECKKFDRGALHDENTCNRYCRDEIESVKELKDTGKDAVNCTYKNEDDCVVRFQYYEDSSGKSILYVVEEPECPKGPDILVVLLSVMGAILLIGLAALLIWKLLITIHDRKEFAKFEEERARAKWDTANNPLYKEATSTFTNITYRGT

For the molecule `O=C(O)c1cn(Cc2nccs2)c2cc(N3CCC(C4CCNCC4)CC3)ccc2c1=O` [Compound 58, 7-[4-(4-Piperidinyl)piperidin-1-yl]-1-(2-thiazolylmethyl)-1,4-dihydro-4-oxoquinoline-3-carboxylic acid], the inhibition at 10 µM (Table 2, 10^-5 M) stood at 100%. Further, the inhibition at 1 µM (Table 2, 10^-6 M) turned out to be 100%.

On to `CCNCc1cn2c(n1)CN(c1c(F)cc3c(=O)c(C(=O)O)cn(C4CC4)c3c1F)CC2` [Compound 27], for which, where the note is “Table 2, 10^-5 M”, the inhibition at 10 µM is 78.4%. Also, for the setting “Table 2, 10^-6 M”, the inhibition at 1 µM worked out at 42.6%.

As for `O=C(O)c1cn(Cc2ccc(Cl)cc2)c2c(F)c(N3CCNCC3)c(F)cc2c1=O` [Compound 74, 1-(4-Chlorobenzyl)-6,8-difluoro-7-(1-piperazinyl)-1,4-dihydro-4-oxoquinoline-3-carboxylic acid], where the note is “Table 2, 10^-5 M”, the inhibition at 10 µM was 58.5%. For the setting “Table 2, 10^-6 M”, the inhibition at 1 µM was 26.1%.

Turning to `CN1CCN(C(=O)CCCNc2c(F)cc3c(=O)c(C(=O)O)cn(C4CC4)c3c2F)CC1` [Compound 42], the inhibition at 10 µM (Table 2, 10^-5 M) was 67.3%. Besides, the inhibition at 1 µM (Table 2, 10^-6 M) stood at 38.6%.

With `O=C(O)c1cn(Cc2nccs2)c2c(F)c(N3CCn4ccnc4C3)c(F)cc2c1=O` [Compound 51], for the setting “Table 2, 10^-5 M”, the inhibition at 10 µM was found to be 97.5%. Where the note is “Table 2, 10^-6 M”, the inhibition at 1 µM came out at 88.1%.

As for `O=C(O)c1cn(Cc2nccs2)c2c(F)c(N3CCNCC3)c(F)cc2c1=O` [Compound 59, 6,8-Difluoro-7-(1-piperazinyl)-1-(2-thiazolylmethyl)-1,4-dihydro-4-oxoquinoline-3-carboxylic acid hydrochloride], where the note is “Table 2, 10^-5 M”, the inhibition at 10 µM came to 100%. The inhibition at 1 µM (Table 2, 10^-6 M) stood at 100%.

`O=C(O)c1cn(C2CC2)c2c(F)c(N3CCn4cc(CN5CCOCC5)nc4C3)c(F)cc2c1=O` [Compound 30]: the inhibition at 10 µM (Table 2, 10^-5 M) came out at 54.8%. Besides, the inhibition at 1 µM (Table 2, 10^-6 M) was 24.2%.

Consider `O=C(O)c1cn(CCF)c2c(F)c(N3CCn4ccnc4C3)c(F)cc2c1=O` [Compound 9], for which the inhibition at 10 µM (Table 2, 10^-5 M) turned out to be 69.5%. Further, where the note is “Table 2, 10^-6 M”, the inhibition at 1 µM was found to be 43.9%.

As for `CN1CCN(c2c(F)cc3c(=O)c(C(=O)O)cn(C)c3c2F)CC1` [Compound 1], the inhibition at 10 µM (Table 2, 10^-5 M) was determined as 70.7%. For the setting “Table 2, 10^-6 M”, the inhibition at 1 µM came out at 48.6%.

Consider `CCn1cc(C(=O)O)c(=O)c2cc(F)c(N3CCN(Cc4ccccn4)CC3)cc21` [Compound 4], for which the inhibition at 10 µM (Table 2, 10^-5 M) is 70.9%. For the setting “Table 2, 10^-6 M”, the inhibition at 1 µM stood at 33%.

Consider `O=C(O)c1cn(Cc2ccc(C(F)(F)F)cc2)c2c(F)c(N3CCC(C4CCNCC4)CC3)c(F)cc2c1=O` [Compound 79, 6,8-Difluoro-7-[4-(4-piperidinyl)piperidin-1-yl]-1-(4-trifiuoromethylbenzyl)-1,4-dihydro-4-oxoquinoline-3-carboxylic acid], for which the inhibition at 10 µM (Table 2, 10^-5 M) was 100%. The inhibition at 1 µM (Table 2, 10^-6 M) came out at 100%.

`NCCN1CCN(c2c(F)cc3c(=O)c(C(=O)O)cn(Cc4nccs4)c3c2F)CC1` [Compound 70]: the inhibition at 10 µM (Table 2, 10^-5 M) amounted to 100%. For the same molecule, the inhibition at 1 µM (Table 2, 10^-6 M) came to 95.9%.

Take `O=C(O)c1cn(CCF)c2c(F)c(N3CCN4CCCC4C3)c(F)cc2c1=O` (stereo not drawn) [Compound 8]: where the note is “Table 2, 10^-5 M”, the inhibition at 10 µM amounted to 79.3%. In addition, the inhibition at 1 µM (Table 2, 10^-6 M) is 53.1%.

With `O=C(O)c1cn(Cc2nccs2)c2c(F)c(N3CCC(C4CCNCC4)CC3)c(F)cc2c1=O` [Compound 68], the inhibition at 10 µM (Table 2, 10^-5 M) worked out at 100%. For the same molecule, the inhibition at 1 µM (Table 2, 10^-6 M) is 100%.

With `O=C(O)c1cn(Cc2nccs2)c2c(F)c(N3CCN(c4cc(N5CCCC5)nc(N5CCCC5)n4)CC3)c(F)cc2c1=O` [Compound 67], the inhibition at 10 µM (Table 2, 10^-5 M) came out at 58.6%. Moreover, the inhibition at 1 µM (Table 2, 10^-6 M) turned out to be 76.4%.

Turning to `COc1cccc(Cn2cc(C(=O)O)c(=O)c3cc(F)c(N4CCC(C5CCNCC5)CC4)c(F)c32)c1` [Compound 80, 6,8-Difluoro-1-(3-methoxybenzyl)-7-[4-(4-piperidinyl)piperidin-1-yl]-1,4-dihydro-4-oxoquinoline-3-carboxylic acid], the inhibition at 10 µM (Table 2, 10^-5 M) came out at 100%. In addition, the inhibition at 1 µM (Table 2, 10^-6 M) turned out to be 100%.

Regarding `CC1COc2c(N3CCN(C)CC3)c(F)cc3c(=O)c(C(=O)O)cn1c23` (stereo not drawn) [Ofloxacin, reference compound], under “Table 1, 1 × 10^-5 M”, the inhibition at 10 µM came to 42.4%. For the same molecule, the inhibition at 1 µM (Table 1, 1 × 10^-6 M) is 4%.

For `CCN1CCCC1CNc1c(F)cc2c(=O)c(C(=O)O)cn(C3CC3)c2c1F` (stereo not drawn) [Compound 24], the inhibition at 10 µM (Table 2, 10^-5 M) turned out to be 50%. Moreover, where the note is “Table 2, 10^-6 M”, the inhibition at 1 µM amounted to 24.9%.

For `NC1CCN(c2nc3c(cc2F)c(=O)c(C(=O)O)cn3-c2ccc(F)cc2F)C1` (stereo not drawn) [Tosufloxacin, reference compound], the inhibition at 10 µM (Table 1, 1 × 10^-5 M) stood at 37.6%. Further, the inhibition at 1 µM (Table 1, 1 × 10^-6 M) amounted to 30.7%.

Regarding `CN1CCN(c2c(F)cc3c(=O)c(C(=O)O)cn(Cc4nccs4)c3c2F)CC1` [Compound 50, 6,8-Difluoro-7-(4-methylpiperazin-1-yl)-1-(thiazol-2-yl)methyl-1,4-dihydro-4-oxoquinoline-3-carboxylic acid hydrochloride], the inhibition at 10 µM (Table 2, 10^-5 M) worked out at 99.8%. Moreover, the inhibition at 1 µM (Table 2, 10^-6 M) came out at 92.3%.

On to `O=C(O)c1cn(Cc2nccs2)c2cc(N3CCN(c4ccncc4)CC3)ccc2c1=O` [Compound 57, 7-[4-(4-Pyridyl)piperazine-1-yl]-1-(2-thiazolylmethyl)-1,4-dihydro-4-oxoquinoline-3-carboxylic acid], for which the inhibition at 10 µM (Table 2, 10^-5 M) worked out at 100%. Also, where the note is “Table 2, 10^-6 M”, the inhibition at 1 µM is 100%.

Consider `CN1CCN(C(=O)OC2CCN(c3c(F)cc4c(=O)c(C(=O)O)cn(C5CC5)c4c3F)C2)CC1` (stereo not drawn) [Compound 26], for which the inhibition at 10 µM (Table 2, 10^-5 M) worked out at 94.1%. The inhibition at 1 µM (Table 2, 10^-6 M) was 71.4%.

As to `O=C(O)c1cn(C2CC2)c2c(F)c(N3CCNCC3)c(F)cc2c1=O` [Compound 22], the inhibition at 10 µM (Table 2, 10^-5 M) was found to be 72.7%. Moreover, the inhibition at 1 µM (Table 2, 10^-6 M) came out at 39.8%.

In the case of `COc1ccccc1Cn1cc(C(=O)O)c(=O)c2cc(F)c(N3CCNCC3)c(F)c21` [Compound 76, 6,8-Difluoro-1-(2-methoxybenzyl)-7-(1-piperazinyl)-1,4-dihydro-4-oxoquinoline-3-carboxylic acid], the inhibition at 10 µM (Table 2, 10^-5 M) turned out to be 100%. Moreover, the inhibition at 1 µM (Table 2, 10^-6 M) is 83.1%.

Take `CN1CCN(c2c(F)cc3c(=O)c(C(=O)O)cn4c3c2N(C)CC4)CC1` [Compound 53, 9-Fluoro-1-methyl-10-(4-methylpiperazin-1-yl) 7-oxo-2,3-dihydro-1H,7H-pyrido[1,2,3-de]quinoxaline-6-carboxylic acid]: where the note is “Table 2, 10^-5 M”, the inhibition at 10 µM was 89.5%. Further, under “Table 2, 10^-6 M”, the inhibition at 1 µM stood at 47.6%.

Consider `O=C(O)c1cn(C2CC2)c2cc(N3CCN4CCC[C@H]4C3)c(F)cc2c1=O` [Compound 32], for which the inhibition at 10 µM (Table 2, 10^-5 M) was 71.2%. Besides, the inhibition at 1 µM (Table 2, 10^-6 M) came out at 39.5%.

Take `Nc1c(F)c(N2CCN3CCC[C@@H]3C2)c(F)c2c1c(=O)c(C(=O)O)cn2C1CC1` [Compound 44]: the inhibition at 10 µM (Table 2, 10^-5 M) stood at 61.6%. The inhibition at 1 µM (Table 2, 10^-6 M) came to 33.4%.
